Results from patent US20240287463A1, “INDUCIBLE TISSUE CONSTRUCTS AND USES THEREOF” (Massachusetts Institute of Technology, priority 2020, published 2024).

Key:
[1] = target: T1, inducible caspase-9 (iCasp9) (Homo sapiens, UniProt P55211); assay: caspase-9 activation in CID-treated iCasp9-GFP J2 fibroblasts (antibody staining, Caspase-Glo 9); assay type: cell-based
T1 construct: #15567 pMSCV-F-del Casp9.IRES.GFP; host or cells: 3T3-J2 fibroblasts, lentivirally transduced
Text: Inducible caspase-9 (iCasp9), which is activated by treatment with a small molecule chemical inducer of dimerization (CID; also known as rapalog, an analog of rapamycin) and leads to subsequent cell death through the intrinsic apoptosis pathway was utilized (FIG. 1A). The safety and efficacy of the iCasp9 transgene and CID have previously been shown in vitro and in vivo in animals and humans (A. Di Stasi, et al. (2011) dx.doi.org/10.1056/NEJMoa1106152; T. Gargett and M. P. Brown (2014) Front. Pharmacol. 5; K. C. Straathof, et al. (2005) Blood 105, 4247, each of which is herein incorporated by this reference). To generate inducible cells, 3T3-J2 fibroblasts (‘J2’) were transduced with lentivirus with a bidirectional expression cassette encoding iCasp9 and GFP genes (#15567 pMSCV-F-del Casp9.IRES.GFP; cloned to a lentivirus plasmid backbone with an SFFV promoter). FACS was used to enrich the infected population for the 15% highest-expression GFP+ cells. […] To transfect J2s, virus was added to growth media and cultured overnight. iCasp9-GFP J2 fibroblasts at passage 22 were grown at confluence for 2 weeks to mimic experimental culture conditions, without a decrease in the percentage of the cell population with positive GFP expression. iCasp9-GFP J2s were plated in monolayer and dosed with ethanol vehicle or CID (B/B homodimerizer, AP20187; rapalog; Takara/ClonTech), and then assayed for cell viability using the CellTiter-Glo® Luminescent Cell Viability Assay (Promega), for caspase-9 activation using the CaspGLOW™ Fluorescein Active Caspase-9 Staining Kit (Thermo Fisher Scientific) and Caspase-Glo®9 Assay Systems (Promega), or stained with the Pacific Blue Annexin V/SYTOXTM AADvanced™ Apoptosis Kit (Thermo Fisher) to identify apoptotic cells by flow cytometry (>100,000 cells analyzed per condition).
After iCasp9-GFP J2 fibroblasts were exposed to CID, iCasp9 dimers were detected by staining with a caspase-9 antibody (FIG. 1C). […]

unmodified J2s = assay: CID exposure of MPCCs plated with unmodified fibroblasts; assay type: cell-based; conditions: data not shown
Text: Specifically, MPCC were fabricated as described previously (S. R. Khetani and S. N. Bhatia (2005) Nat. Biotechnol 26, 120; S. March et al. (2015) Nat. Protoc. 10, 2007). Briefly, collagen was adsorbed in each well of a 96 well plate (glass bottom), and then patterned using an elastomeric polydimethysiloxane mold and oxygen plasma gas ablation. Human hepatocytes were thawed and seeded (70 k/well) on the collagen islands (500 μm with 1,200 μm center-to-center spacing). Adhered hepatocytes (˜10 k/well) were allowed to spread overnight before fibroblasts were seeded for co-culture (7 k/well). Supernatant was collected from cultures every other day and stored at −20° C. Human albumin was quantified using an enzyme-linked immunosorbent assay using a sheep anti-rat albumin antibody (ELISA) (Bethyl Laboratories) and 3,3′,5,5′-tetramethylbenzidine (TMB, Thermo Fisher). Urea concentration was measured using a colorimetric (diacetylmonoxime) assay with acid and heat (Stanbio Labs). CYP3A4 activity was assessed with the luminogenic P450-GloTM CYP450 assay kit (Promega) for nonlytic assays using cultured cells. Cultures were pre-treated with 2 μM rifampin or 1:1,000 DMSO vehicle control prepared in hepatocyte maintenance media for 72 hours (daily replenishment) where indicated. […]

T1 sequence (P55211 with tags, fused parts or gaps limits assumed): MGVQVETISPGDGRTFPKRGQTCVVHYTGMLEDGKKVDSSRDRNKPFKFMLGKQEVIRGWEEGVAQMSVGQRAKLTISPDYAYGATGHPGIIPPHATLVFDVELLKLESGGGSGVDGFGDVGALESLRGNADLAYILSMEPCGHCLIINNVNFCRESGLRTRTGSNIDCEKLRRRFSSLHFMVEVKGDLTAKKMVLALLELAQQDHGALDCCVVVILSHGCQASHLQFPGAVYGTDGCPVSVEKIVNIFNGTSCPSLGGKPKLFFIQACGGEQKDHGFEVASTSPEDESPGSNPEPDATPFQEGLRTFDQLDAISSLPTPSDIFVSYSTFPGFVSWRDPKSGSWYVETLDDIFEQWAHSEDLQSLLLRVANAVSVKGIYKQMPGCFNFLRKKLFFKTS

Caspase-9 staining ([1]; 50 nM CID, collected 15 and 30 minutes after treatment): increased
caspase-9 cleavage compared to wild-type J2s ([1]; 15 minutes after CID dosing): 16 fold
caspase-9 cleavage compared to wild-type J2s ([1]; 30 minutes after CID dosing): 18 fold
Structure (SMILES): CC[C@H](C(=O)N1CCCC[C@H]1C(=O)O[C@H](CCc1ccc(OC)c(OC)c1)c1cccc(OCC(=O)NCC(CNC(=O)COc2cccc([C@@H](CCc3ccc(OC)c(OC)c3)OC(=O)[C@@H]3CCCCN3C(=O)[C@@H](CC)c3cc(OC)c(OC)c(OC)c3)c2)CN(C)C)c1)c1cc(OC)c(OC)c(OC)c1 [CID, AP20187]
effect of CID exposure on unmodified J2s in MPCCs (unmodified J2s): unaffected
